According to article PMC5644030 (Biochemistry, 2017):

Legend:
Rv3404c [1] = target: T1, Rv3404c (Mycobacterium tuberculosis, UniProt P9WKZ3)
Rv3404c [2] = target: T1, Rv3404c; remark: listed apart in the source

T1 sequence (P9WKZ3 whole entry): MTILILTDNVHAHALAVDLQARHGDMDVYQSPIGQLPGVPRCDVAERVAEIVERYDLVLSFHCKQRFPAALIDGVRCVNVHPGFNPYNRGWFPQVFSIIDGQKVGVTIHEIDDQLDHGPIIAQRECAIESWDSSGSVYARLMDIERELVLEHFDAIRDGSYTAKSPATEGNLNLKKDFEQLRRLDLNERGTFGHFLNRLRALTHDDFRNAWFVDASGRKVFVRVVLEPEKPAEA

Structure (SMILES)	X-ray crystallography, 1.6 Å ternary complex (Rv3404c [1])	HPLC and ESI mass spectrometry of product (Rv3404c [2])
Nc1nc2c(c(=O)[nH]1)N(C=O)[C@@H](CNc1ccc(C(=O)N[C@@H](CCC(=O)O)C(=O)O)cc1)CN2 [N5-formyl-THF]	The structure of Rv3404c in complex with N5-formyltetrahydrofolate (N5-formyl-THF) and dTDP-Qui4N was determined	
Nc1nc2c(c(=O)[nH]1)N[C@@H](CN(C=O)c1ccc(C(=O)N[C@@H](CCC(=O)O)C(=O)O)cc1)CN2 [N10-formyl-THF]		Upon incubation of dTDP-Qui4N and N10-formyl-THF with Rv3404c, a peak was observed
